Where no end group is shown, it is not given here.

The subject of this data set is NCI-H522 cells (POTE+/HLA-A2). Description: CTL cytotoxicity against human cancer cells. The class given is cell-based. The settings on record: HHD-2 mice immunized with 50 nmol peptide, restimulated 7 days with 1000 nM peptide; POTE-expressing NCI-H522 human lung cancer cells. The method, then: FIGS. 8A-8B are graphs showing anti-tumor cytotoxicity induced by enhanced POTE epitopes. AAD mice were immunized s.c. with 50 nmol of peptide in 100 μl of emulsion. (FIG. 8A) Anti-tumor cytotoxicity against a POTE-expressing human lung cancer cell line NCI-H522 induced by POTE 553-1Y, 323-3F and 252-9V. HHD-2 mice were immunized with 50 nmol of peptide in 100 μl of emulsion and restimulated for 7 days with 1000 nM peptide before being tested for ability to lyse the tumor cells. (FIG. 8B) Summary of the anti-tumor cytotoxicity in POTE-expressing and non-POTE-expressing human tumor cells. NCI-H522 is a human lung cancer line expressing both POTE and HLA-A2, whereas HTB-19 is a human mammary carcinoma that expresses POTE but not HLA-A2, and MDA-MB-231 is a human mammary carcinoma cell line expressing HLA-A2 but not POTE.
AAD or HHD-2 mice were immunized subcutaneously (s.c.) in the base of the tail with 100 μl of an emulsion containing 1:1 incomplete Freund's adjuvant (Sigma) and PBS with peptides and cytokines (50 nmol of CTL epitope, 50 nmol of hepatitis B virus core 128-140 helper epitope, 5 μg of mouse interleukin-12, and 5 μg of mouse granulocyte macrophage colony-stimulating factor). Cytokines were purchased from Peprotech (Rocky Hill, N.J.). Mice were boosted 2 weeks later, and the spleens were removed 2 weeks after the boost. For all experiments, groups of three mice were used.
Splenocytes from the immunized mice were re-stimulated with peptide-loaded splenocytes (1 μM, or 10 nM). On day 1 and day 5, rat T STIM™ (BD Bioscience) was added as a source of IL-2. One week later, CTL activity was measured by using a 4-hour ^51Cr releasing assay. […] The percentage of specific ^51Cr release is calculated as 100× [(experimental release-spontaneous release)/(maximum release-spontaneous release)]. Spontaneous release is determined from target cells incubated without effector cells, and maximum release is determined in the presence of 5% triton-X. C1R.AAD or C1R.A2.1 cell lines were used as targets. […]
Turning to KLMAKALLV [POTE 252-9V], the “anti-tumor cytotoxicity of peptide-induced CTLs” value (from here on “anti-tumor cytotoxicity”) was “did not kill POTE-expressing cancer cells”.

As to YILEEIESV [POTE 553-1Y], the “anti-tumor cytotoxicity” value was “produced significant cytotoxicity to lyse NCI-H522 cells”.

For LLFEQNVDV [POTE 323-3F], the “anti-tumor cytotoxicity” value is recorded as “produced significant cytotoxicity to lyse NCI-H522 cells”.

The values above are taken from US9394352B2, “Immunogenic POTE peptides and methods of use” (The United States of America, as represented by the …, priority 2010, dated 2016).
